# Assay results taken from PubChem BioAssay (NCI).
# Values joined by “and” are separate entries in the source; they are usually repeats but may differ in a detail not shown here. Equal values may be shown once.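 Compound exposure: 48 hours, 5 concentrations, 96-well plates. GI50: concentration for 50% inhibition of growth. TGI denotes the concentration required for complete inhibition of growth.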
# How the values were obtained:
# Test in all cases: NCI tumour cell line growth inhibition, 48 h
# SR leukemia = test system: SR leukemia
# SK-MEL-5 melanoma = test system: SK-MEL-5 melanoma
# NCI-H460 lung = test system: NCI-H460 lung
# MDA-MB-231 breast = test system: MDA-MB-231 breast
# ACHN renal = test system: ACHN renal
# NCI-H226 lung = test system: NCI-H226 lung
# U251 CNS = test system: U251 CNS
# UO-31 renal = test system: UO-31 renal
# NCI-H522 lung = test system: NCI-H522 lung
# BT-549 breast = test system: BT-549 breast
SMILES,GI50 (SR leukemia) [µM],TGI (SR leukemia),GI50 (SK-MEL-5 melanoma),TGI (SK-MEL-5 melanoma),GI50 (NCI-H460 lung),TGI (NCI-H460 lung),GI50 (MDA-MB-231 breast) [µM],TGI (MDA-MB-231 breast),GI50 (ACHN renal),TGI (ACHN renal),GI50 (NCI-H226 lung),TGI (NCI-H226 lung),GI50 (U251 CNS) [µM],TGI (U251 CNS),GI50 (UO-31 renal),TGI (UO-31 renal),GI50 (NCI-H522 lung) [µM],TGI (NCI-H522 lung),GI50 (BT-549 breast) [µM],TGI (BT-549 breast)
Cc1cc(Nc2nc(-c3cn(-c4ccc(Cl)cc4)nn3)nc3ccccc23)n[nH]1,8.78,40 µM,20.8 µM,> 50 µM,5.65 µM,36.3 µM,17.7,> 50 µM,3.62 µM,> 50 µM,> 50 µM,> 50 µM,9.39,> 50 µM,1.65 µM,11.3 µM,> 50,> 50 µM,15,> 50 µM
CN(C)C(=S)SSC(=S)N(C)C,,74.6 µM and 27.8 µM and 34.8 µM,,> 100 µM and 20.8 µM and 29.2 µM,0.365 µM and 0.324 µM and 1.43 µM,25.2 µM and 13.6 µM and 53 µM,,42.9 µM and 32 µM and 53.5 µM,15.7 µM and 55.6 µM and 19.7 µM,30.2 µM and > 100 µM and 37.1 µM,21.4 µM and > 78.4 µM and 38.3 µM,84.6 µM and > 100 µM and > 65.8 µM,12.6,26 µM and > 65.3 µM and 38.5 µM,15 µM,28.7 µM and > 46.4 µM and 94 µM,,14.7 µM and 10.4 µM and 8.24 µM,,30.6 µM and 31.3 µM and 28.4 µM
CC(C)CC(C/C=C1/CC(CO)(COC(=O)C(C)(C)C)OC1=O)CC(C)C (centres undefined),,26.4 µM,0.462 µM and 0.0794 µM,18.8 µM and 4.95 µM,,17.8 µM and 5.69 µM,,17.4 µM,11.4 µM and 5.25 µM,24.1 µM and 21.3 µM,3.34 µM and 14.1 µM,17.6 µM and 28.5 µM,,21.7 µM,10.8 µM and 3.51 µM,23 µM and 17.1 µM,,30 µM and 27 µM,,24.6 µM and 31 µM
COc1ccc(-c2nccn2-c2ccc(OC)cc2)cc1,0.64,30.8 µM,14.2 µM,30.4 µM,17.9 µM,60.7 µM,16.4,57.5 µM,5.64 µM,> 57.4 µM,18.6 µM,> 70.8 µM,26.3,> 72.9 µM,23.3 µM,> 82 µM,17,42.9 µM,28.7,> 94.5 µM
C#CCOc1cccc(Nc2ncnc3c(NC(=O)C=C)cccc23)c1,4.37,> 100 µM,14.8 µM,33.1 µM,27 µM,80.4 µM,20.7,> 100 µM,17.8 µM,63.4 µM,25.5 µM,69.1 µM,30.4,> 100 µM,13.4 µM,87.5 µM,14.1,32.6 µM,13.9,89.9 µM
ClCCN(CCCl)c1ccc(CNc2ccccc2)cc1,0.674,> 100 µM,11.3 µM,34.4 µM,1.21 µM,> 100 µM,28.5,> 100 µM,2.76 µM,> 100 µM,10.3 µM,28.2 µM,4.43,> 100 µM,4.86 µM,42.3 µM,4.85,22 µM,7.2,43 µM
CCc1ccc2c(c1)C(=O)c1c-2n(CCCN=[N+]=[N-])c(=O)c2cc([N+](=O)[O-])ccc12,> 50,> 50 µM,> 50 µM,> 50 µM,> 50 µM,> 50 µM,> 50,> 50 µM,> 50 µM,> 50 µM,> 50 µM,> 50 µM,> 50,> 50 µM,> 50 µM,> 50 µM,> 50,> 50 µM,> 50,> 50 µM
CCN(CC)CCCCCCNc1cccc2cc(Br)cnc12,3.04,12.6 µM,1.83 µM,3.27 µM,4.25 µM,16.5 µM,1.59,4.64 µM,4.98 µM,17.1 µM,11.8 µM,27 µM,5.36,17.7 µM,3.15 µM,15 µM,1.88,4.97 µM,10.1,22.2 µM
COC(c1ccc(C(C)(C)C)cc1)(c1ccc(C(C)(C)C)cc1)c1ccc(C(C)(C)C)cc1,,> 100 µM,,> 100 µM,,> 100 µM,,> 100 µM,,> 100 µM,,> 100 µM,,> 100 µM,,> 100 µM,,> 100 µM,,> 100 µM
O=C(c1ccco1)c1c(C(F)(F)F)n([O-])c2ccc(C(F)(F)F)cc2[n+]1=O,0.127,0.408 µM,0.508 µM,1.09 µM,0.434 µM,1.57 µM,0.298,0.768 µM,0.168 µM,0.362 µM,0.657 µM,1.55 µM,0.217,0.536 µM,0.205 µM,0.439 µM,0.462,1.16 µM,0.177,0.339 µM
